Consider eleven compounds from US20100152275A1, “Drug or Supplement Combination with Conjugated Linoleic Acid for Fat Loss in Mammals” (Kaloness, Inc., priority 2008, published 2010).

Series [1] concerns 3T3-L1 adipocytes. The series can be described thus: Triglyceride levels (delipidation) in 3T3-L1 adipocytes. In kind it is cell-based, Mouse. Conditions: for TG levels: differentiated 3T3-L1 adipocytes, alone or combined with t10c12 CLA; for reduced triglyceride levels by, relative to the linoleic acid control: Example 15, CLA 50 uM. Here is the method:
Two well known AMPK activators with very different chemical structures are metformin and AICAR. Metformin is from the class of biguanides while AICAR is a ribonucleoside analog that is phosphorylated in the cell to form ZMP, an AMP mimetic. […] A lower 50 μM level of t10c12 CLA was used in the experiment to better measure any effects of the combinations.
We recognize the complex medical effects and dangers of ATRA, retinoids, or rexinoids, has limited their therapeutic use in humans.
We tested the role of PPARβ/δ with the use of GW0742, a PPARβ/δ agonist.
Activating ligands include hydroxysterols such as 24(S)-Hydroxycholesterol or 24(S),25-epoxycholesterol.
We treated 3T3-L1 adipocytes with control or CLA fatty acids, with or without a statin drug.

In a further series the test system is MCP-1 mRNA. Put plainly: MCP-1 mRNA by real time PCR in 3T3-L1 adipocytes. In kind it is cell-based, Mouse. Conditions: 12 hrs. The protocol: CLA has been reported to cause inflammation which is considered a non-healthy condition. […] Metformin or AICAR was used in combination with t10c12 CLA in the media containing the adipocytes for 12 hrs. RNA was isolated and the inflammatory response, as measured by MCP-1 (an inflammatory cytokine) mRNA levels, was determined by real time PCR of the reverse transcribed RNA.
Background: In qPCR the cycle at which signal appears reflects the starting amount.

The next series concerns 3T3-L1 fibroblasts. The series can be described thus: Integrated stress response (ISR) in 3T3-L1 fibroblasts, microarray. Conditions: 3T3-L1 fibroblasts prior to differentiation. In kind it is cell-based, Mouse. The text has this: (§1) We have microarray analyses of 3T3-L1 fibroblasts prior to differentiation and from liver tissues in mice treated with t10c12 CLA that support the hypothesis that t10c12 CLA is selective in the types of cells responding. The ISR is a cell response that most cells are capable of inducing and is a key part of the response to t10c12 CLA [5, 19].

The test system of the next series is WAT of mice. The series can be described thus: Microarray analysis of WAT of mice fed t10c12 CLA. In kind it is in vivo. The text has this: Recent microarray analyses of the WAT of mice fed t10c12 CLA by our laboratory and others found three major trends. […] This initial inflammatory response is transient: the expression levels of many of these genes returns to normal levels following the first week of treatment, and the remaining genes are expressed at lower levels than the initial response. […] In particular, carnitine palmitoyltransferase I (CPT1), uncoupling protein 1 (UCP1), and uncoupling protein 2 (UCP2) show increases. The response in UCP1 and UCP2 genes is quite strong, as the levels of the induced mRNAs are in the 95th and 90th percentiles of the most abundant mRNAs in the adipocyte, respectively. UCP1 is usually exclusively expressed in brown adipose tissue, so this is a remarkable change in expression pattern with likely physiological effects. There is not a consensus that increased metabolic heat output occurs in t10c12 CLA treatments, but this increased metabolism has been observed in some studies.

The test system of a further series is AMPK. Put plainly: AMPK phosphorylation in 3T3-L1 adipocytes, western blot. In kind it is cell-based, Mouse. Conditions: for Phospho-AMPK Amount: 3T3-L1 adipocytes, LA = 1.
For the next series, the system named is liver tissues. Put plainly: Microarray analysis of liver tissues of mice treated with t10c12 CLA. In kind it is in vivo.
Source text: as §1

The test system of series [2] is acetyl CoA carboxylase (ACC). Conditions: for Phospho-ACC amount: 3T3-L1 adipocytes, LA = 1.
Experimental: (§3) The level of phosphorylated AMPK and acetyl CoA carboxylase (ACC), one of AMPK's known in vivo substrates, was measured at various times after treating 3T3-L1 adipocytes with either 100 uM linoleic acid or trans-10, cis-12 CLA (t10c12 CLA). […] The total amounts of AMPK and ACC were also determined with antibodies that recognize the respective proteins regardless of phosphorylation status.
(§4) The phosphorylation levels of AMPK and ACC were then determined after treating 3T3-L1 adipocytes with either metformin, AICAR, or t10c12 CLA alone or in combination.
The nature of series [3]: 14 d feeding trial of t10c12 CLA and metformin in ML mice. Conditions: for fat pad weights relative to control untreated mice: 0.25% CLA, either dose of metformin; for change in body weight (BW) / final weight of the epididymal (EPI) / final weight of the retroperitoneal (RP): mean ± SEM. In kind it is in vivo. Here is the method:
(§2) FIG. 1. […] Forty-two MC and 42 mL mice were fed diets containing soy oil or soy oil with 0.25% t10c12 CLA and drinking water containing either none, 0.33 mg/ml, or 3.33 mg/ml metformin (Met) for 14 days (n=6 mice per treatment). A positive control diet contained the standard amount of 0.5% t10c12 CLA without any metformin. Body weights were recorded and retroperitoneal (RP) and epididymal fat pads from all the mice were isolated and weighed.

Series [4] in a line: 14 d feeding trial of t10c12 CLA and metformin in MC mice. In kind it is in vivo. Conditions: mean ± SEM. Here is the method:
as §2

Series [5] deals with 3T3-L1 adipocytes. Put plainly: Microarray gene expression changes in 3T3-L1 adipocytes. In kind it is cell-based, Mouse. Conditions: compared with t10c12 CLA, data not shown.
A further series concerns adipocytes. The series can be described thus: Inflammatory response to phenformin in adipocytes. In kind it is cell-based. Conditions: compared with metformin.
For series [6] the following is noted: reference [18]; cited from earlier work.
Setting [7] is: 100 uM, from 30 min, persisted 16 hr, vs linoleic acid.

Read-outs that look alike come from different tables or passages of the source.

Experimental for AMPK: as §3, §4

As to `C[C@H](CC[C@@H]1OC1(C)C)[C@H]1CC[C@H]2[C@@H]3CC=C4C[C@@H](O)CC[C@]4(C)[C@H]3CC[C@]12C` [24(S),25-epoxycholesterol], in the series with 3T3-L1 adipocytes [1], the TG levels result was “did not reduce TG levels”.

For `CC(C)[C@@H](O)CC[C@@H](C)[C@H]1CC[C@H]2[C@@H]3CC=C4C[C@@H](O)CC[C@]4(C)[C@H]3CC[C@]12C` [24(S)-Hydroxycholesterol], the TG levels result with 3T3-L1 adipocytes [1] was “did not reduce TG levels”.

In the case of `NC(=O)c1ncn([C@@H]2O[C@H](CO)[C@@H](O)[C@H]2O)c1N` [AICAR, aminoimidazole carboxamide ribonucleotide, reference compound], the “MCP-1 induction relative to the LA control” value with MCP-1 mRNA is given as “neither metformin nor AICAR alone produced a significant induction”.

With `CC1=C(/C=C/C(C)=C/C=C/C(C)=C/C(=O)O)C(C)(C)CCC1` [ATRA, All trans retinoic acid], in the series with 3T3-L1 adipocytes [1], the TG levels entry was “increased amounts of TG”.

As for `CCCCC/C=C\C=C\CCCCCCCCC(=O)O` [CLA, trans-10, cis-12 CLA], the “MCP-1 induction relative to the LA control” value in the series on MCP-1 mRNA is on record as 23 fold. Besides, in the series with MCP-1 mRNA (LA = 1), the “MCP-1 mRNA levels” value is recorded as 23. For the same compound, the “reduction in triglyceride levels” value with 3T3-L1 adipocytes [1] (Example 2, CLA alone, vs LA control) turned out to be 50%. In addition, the “reduced triglyceride levels by, relative to the linoleic acid control” value in the series on 3T3-L1 adipocytes [1] stood at 25%. The ISR response entry in the series on 3T3-L1 fibroblasts is listed as “do not show this response”. Also, in the series with WAT of mice (WAT of mice fed t10c12 CLA), the “UCP1 induced mRNA level, percentile of the most abundant mRNAs in the adipocyte” value was 95 percentile; the “UCP2 induced mRNA level, percentile of the most abundant mRNAs in the adipocyte” value is 90 percentile; the “expression of key adipocyte lipid-related genes” value is reported as “reduced expression”; the “mRNA levels of key fatty acid oxidation genes (CPT1, UCP1, UCP2)” value is recorded as “increased mRNA levels”. In addition, the “inflammatory response (Cox2, cytokines)” value in the series on WAT of mice (first several days of dietary t10c12 CLA, transient) is “induce an inflammatory response”. The “total amount of AMPK” value in the series with AMPK (100 uM, 16 hr experiment) is reported as “remained constant”. In the series on AMPK (setting [7]), the “level of phosphorylated AMPK” value was “increased levels”. Besides, the “Phospho-AMPK Amount” value in the series with AMPK (2 hr) worked out at 6.0. Further, the “Phospho-AMPK Amount” value with AMPK (8 hr) is given as 1.7. For the same compound, in the series with liver tissues (compared with adipose tissue), the ISR in liver entry was “weak ISR”. Further, in the series with liver tissues (mice treated with t10c12 CLA), the “delipidation or inflammatory response in liver” value is “lacked a significant delipidation or inflammatory response”. In addition, the “total amount of ACC” value in series [2] (100 uM, 16 hr experiment) is “remained constant”. For the same compound, the “level of phosphorylated ACC” value in [2] (setting [7]) is recorded as “increased levels”. In [2] (2 hr), this compound displayed a Phospho-ACC amount of 4.1. In series [2] (8 hr), this compound yielded a Phospho-ACC amount of 3.3. Besides, the “fat pad weights relative to control untreated mice” value in series [3] is reported as “no significant change”. In addition, the change in body weight (BW) in [3] (Met0 (no metformin), 14 d) was found to be 1.89 ± 0.95 g. In series [3] (Met0, 14 d), the final weight of the epididymal (EPI) was determined as 0.89 ± 0.17 g and the final weight of the retroperitoneal (RP) was 0.27 ± 0.08 g. In series [4] (Met0, 14 d), the change in body weight (BW) worked out at 1.42 ± 0.46 g, the final weight of the epididymal (EPI) came to 0.31 ± 0.07 g and the final weight of the retroperitoneal (RP) stood at 0.1 ± 0.01 g.

On to `Cc1cc(SCc2sc(-c3ccc(C(F)(F)F)c(F)c3)nc2C)ccc1OCC(=O)O` [GW0742], for which the TG levels entry in the series with 3T3-L1 adipocytes [1] is recorded as “little effect on TG levels”.

Regarding `CN(C)C(=N)N=C(N)N` [Metformin], the “MCP-1 induction relative to the LA control” value in the series on MCP-1 mRNA is recorded as “neither metformin nor AICAR alone produced a significant induction”. Also, the “induction of inflammatory genes (CD14, Clcf1, Cox2, Csf1, MCP-1, Osmr, PAI, SOCS3)” value in the series with 3T3-L1 adipocytes [5] is on record as “lower levels of induction”. In addition, in [3], the “fat pad weights relative to control untreated mice” value is reported as “increased fat pad weights”. Moreover, the final weight of the epididymal (EPI) stood at 1.06 ± 0.13 g in [3] (Met2 (2 mmol/L), 14 d); 1.08 ± 0.12 g in series [3] (Met20 (20 mmol/L), 14 d); 0.59 ± 0.07 g in series [4] (Met2 (2 mmol/L), 14 d); 0.48 ± 0.09 g in series [4] (Met20 (20 mmol/L), 14 d). The final weight of the retroperitoneal (RP) in series [3] (Met2 (2 mmol/L), 14 d) came to 0.37 ± 0.1 g; in series [3] (Met20 (20 mmol/L), 14 d), 0.33 ± 0.06 g; in [4] (Met2 (2 mmol/L), 14 d) it was 0.23 ± 0.04 g; in series [4] (Met20 (20 mmol/L), 14 d), 0.23 ± 0.06 g. Besides, the change in body weight (BW) in [3] (Met2 (metformin 2 mmol/L drinking water), 14 d) was found to be 2.89 ± 1 g; in [3] (Met20 (metformin 20 mmol/L drinking water), 14 d), 2.54 ± 0.51 g; in series [4] (Met2 (2 mmol/L), 14 d), 1.96 ± 0.9 g; in [4] (Met20 (20 mmol/L), 14 d), 2.82 ± 0.96 g.

`[H]/N=C(/N)N/C(=N/[H])NCCc1ccccc1` [Phenformin]: the inflammatory response result in the series on adipocytes is recorded as “stronger than that observed with metformin”. Moreover, the lactic acidosis entry in series [6] was “can cause toxic lactic acidosis”. In the series on 3T3-L1 adipocytes [1] (Example 9), the delipidation entry was “sufficient for the type of strong delipidation observed with t10c12 CLA treatments”. Further, the p-AMPK levels result in the series on AMPK (compared with metformin) is “higher p-AMPK levels”.

Take `c1cc(-c2cnn3cc(-c4ccc(OCCN5CCCCC5)cc4)cnc23)ccn1` [compound C, reference compound]: in the series with AMPK (Example 2, western blot), the “phosphorylation of AMPK” value was “inhibited”. The “phosphorylation of Acetyl-Coenzyme A Carboxylase (ACC)” value in series [2] (Example 2, western blot) is given as “inhibited”.

With `CC[C@H](C)C(=O)O[C@H]1CCC=C2C=C[C@H](C)[C@H](CC[C@@H]3C[C@@H](O)CC(=O)O3)[C@H]21` [mevastatin, Mevastatin], the “reduced triglyceride levels by, relative to the linoleic acid control” value with 3T3-L1 adipocytes [1] amounted to 10%.

On to `CC1=C(/C=C/C(C)=C/C=C/C(C)=C/CO)C(C)(C)CCC1` [vitamin A, retinol], for which the TG levels result with 3T3-L1 adipocytes [1] is on record as “little impact”.
